In US6815398B1, “Substituted phenyluracils and their use as herbicides” (Bayer Aktiengesellschaft, priority 1999, dated 2004):

Compound `COc1ccc(Oc2cc(-n3c(=O)cc(C(F)(F)F)[nH]c3=O)c(F)cc2C#N)cc1` [Example 1, 4-(3,6-dihydro-2,6-dioxo-4-trifluoromethyl-1(2H)-pyrimidin-1-yl)-5-fluoro-2-(4-methoxy-phenoxy)-benzonitrile] has a melting point of 84 °C.
For `COc1ccc(Oc2cc(-n3c(=O)cc(C(F)(F)F)n(C)c3=O)c(F)cc2C#N)cc1` [Example 2, 4-(3,6-dihydro-2,6-dioxo-3-methyl-4-trifluoro-methyl-1(2H)-pyrimidin-1-yl)-5-fluoro-2-(4-methoxy-phenoxy)-benzonitrile], the melting point was 62 °C.
